# US20130078351A1, “COMPOUNDS AND METHODS FOR ENHANCING SALTY TASTE” (Monell Chemical Senses Center, priority 2010, published 2013)
# Assays:
# [1] = test system: human taste; assay: Psychophysical assessment of salty taste enhancing properties; assay type: in vivo
# Description: 121 subjects participated in this study. They were familiar with the taste of the 5 modalities (sweet, bitter, umami, sour, and salty), and the use of a modality—specific task. Each subject was presented with 5 cups, each having 10 ml of fluid, plus a large amount of water as a rinse before and in between each sampling. Subjects were told to hold the sample in their mouth for several seconds before making a judgment. Subjects sampled and rated all five solutions, then repeated the study. Subjects rated intensity and modality. The samples tested were • 1. 50 mM NaCl • 2. 75 mM NaCl • 3. N-(2-hydroxyethyl)-4-methylpentanamide at 20 ppm • 4. 50mM NaCl plus 20 ppm N-(2-hydroxyethyl)-4-methylpentanamide • 5. 75 mM NaCl plus 20 ppm N-(2-hydroxyethyl)-4-methylpentanamide
# The results of this study are depicted in FIG. 1. The X-axis of FIG. 1 provides the identity of the five solutions that were rated and the Y-axis provides the Geometric Mean saltiness intensity ratings. Error bars are Geometric Standard Errors. […] It was slightly bitter tasting with an average bitterness intensity of 3 (data not shown). N-(2-hydroxyethyl)-4-methylpentanamide enhanced the saltiness of 50 mM NaCl by more than 100% and the saltiness of 75 mM NaCl by approximately 35%. Consistency among subjects was high as indicated by the error bars.
# [2] = target: T1, Epithelial Sodium Channel (ENaC) subunits delta/beta/gamma (Homo sapiens, UniProt P51168+P51170+P51172); assay: Testing in Xenopus oocytes expressing ENaC (inward sodium current recording); assay type: cell-based; conditions: oocyte expressing delta
# T1 construct: expressed in transfected cells; host or cells: Xenopus laevis oocytes injected with cRNA
# T1 sequence (P51172 1-802): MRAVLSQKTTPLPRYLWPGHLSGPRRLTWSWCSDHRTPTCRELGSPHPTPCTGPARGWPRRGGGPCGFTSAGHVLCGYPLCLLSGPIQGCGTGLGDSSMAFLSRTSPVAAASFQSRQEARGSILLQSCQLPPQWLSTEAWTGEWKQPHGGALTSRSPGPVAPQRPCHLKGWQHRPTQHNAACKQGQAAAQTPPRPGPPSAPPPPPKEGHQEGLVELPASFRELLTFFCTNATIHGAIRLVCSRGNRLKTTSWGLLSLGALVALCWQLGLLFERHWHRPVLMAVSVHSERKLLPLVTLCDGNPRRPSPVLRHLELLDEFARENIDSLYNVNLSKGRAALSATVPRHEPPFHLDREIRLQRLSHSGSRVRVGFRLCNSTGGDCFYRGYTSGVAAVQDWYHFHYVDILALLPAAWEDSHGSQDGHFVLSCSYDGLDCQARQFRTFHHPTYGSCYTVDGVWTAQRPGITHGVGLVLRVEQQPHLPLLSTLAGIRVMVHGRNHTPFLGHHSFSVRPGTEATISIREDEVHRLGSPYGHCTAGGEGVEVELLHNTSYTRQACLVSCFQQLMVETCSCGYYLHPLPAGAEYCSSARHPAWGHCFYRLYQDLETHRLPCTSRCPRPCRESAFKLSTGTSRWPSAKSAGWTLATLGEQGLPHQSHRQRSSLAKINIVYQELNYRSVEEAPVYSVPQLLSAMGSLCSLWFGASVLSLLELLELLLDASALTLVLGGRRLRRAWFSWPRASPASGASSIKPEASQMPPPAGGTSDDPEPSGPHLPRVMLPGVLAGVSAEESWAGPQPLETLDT
# T1 sequence (P51168 1-640): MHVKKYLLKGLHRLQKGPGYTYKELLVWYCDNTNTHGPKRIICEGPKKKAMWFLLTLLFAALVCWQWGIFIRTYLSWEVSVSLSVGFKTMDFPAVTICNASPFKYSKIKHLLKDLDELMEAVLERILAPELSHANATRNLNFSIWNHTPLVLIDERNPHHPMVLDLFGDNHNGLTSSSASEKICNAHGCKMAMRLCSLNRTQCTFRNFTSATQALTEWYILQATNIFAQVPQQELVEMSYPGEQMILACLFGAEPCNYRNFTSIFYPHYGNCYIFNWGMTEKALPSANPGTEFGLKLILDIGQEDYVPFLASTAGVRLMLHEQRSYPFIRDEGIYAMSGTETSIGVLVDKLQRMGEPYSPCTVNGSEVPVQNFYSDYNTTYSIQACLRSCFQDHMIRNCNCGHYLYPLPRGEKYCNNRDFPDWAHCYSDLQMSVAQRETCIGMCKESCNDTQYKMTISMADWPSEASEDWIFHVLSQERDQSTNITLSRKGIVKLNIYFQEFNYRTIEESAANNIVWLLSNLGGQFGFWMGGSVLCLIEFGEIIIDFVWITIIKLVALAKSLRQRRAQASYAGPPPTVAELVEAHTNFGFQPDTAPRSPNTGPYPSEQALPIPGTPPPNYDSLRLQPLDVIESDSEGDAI
# T1 sequence (P51170 1-649): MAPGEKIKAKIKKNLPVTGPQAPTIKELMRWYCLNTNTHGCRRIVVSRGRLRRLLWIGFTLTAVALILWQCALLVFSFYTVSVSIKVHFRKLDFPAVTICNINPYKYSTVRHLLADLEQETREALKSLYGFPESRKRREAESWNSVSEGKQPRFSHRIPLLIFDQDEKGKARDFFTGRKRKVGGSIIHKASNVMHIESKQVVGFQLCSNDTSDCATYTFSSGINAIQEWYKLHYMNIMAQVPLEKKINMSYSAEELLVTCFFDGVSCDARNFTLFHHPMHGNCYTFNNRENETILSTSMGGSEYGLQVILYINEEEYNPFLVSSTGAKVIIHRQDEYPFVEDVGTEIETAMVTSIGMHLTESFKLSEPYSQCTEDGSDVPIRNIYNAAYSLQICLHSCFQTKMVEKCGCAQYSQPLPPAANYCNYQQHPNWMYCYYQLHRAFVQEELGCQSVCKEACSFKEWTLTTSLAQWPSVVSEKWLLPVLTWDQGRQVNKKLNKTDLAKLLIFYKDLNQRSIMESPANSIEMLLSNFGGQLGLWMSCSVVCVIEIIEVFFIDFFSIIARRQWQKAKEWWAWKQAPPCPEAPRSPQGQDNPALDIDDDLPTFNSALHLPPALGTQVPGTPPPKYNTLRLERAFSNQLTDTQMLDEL
# Description: The frog, Xenopus laevis, produces oocytes that are particularly obliging in permitting a foreign gene to be incorporated into its protein translation system. The egg then makes this foreign protein encoded by the injected complimentary RNA (cRNA). Oocytes are harvested when at stage 5 or 6, from female Xenopus and defolliculated (using trypsin) and placed in low sodium culture medium. After overnight culture the egg is injected with the cRNA of the protein(s) of interest.
# There is evidence that one of the major “receptors” of salty taste is the ENaC. This channel functions as a heterotrimer, a complex of three different peptides. The transfected eggs are then cultured for 4 to 6 days. Depending upon the endpoint of the study, all three subunits are expressed into one cell or one subunit is expressed per cell. The internal machinery of the cell places the ENaC into the plasma membrane. These preparations can be used as follows: • 1. Two Electrode Voltage Clamp (TEVC) across the entire oocyte is the most direct method for detecting ion flux through the ENaC, but it will respond to any ion movement, making it less desirable for precise analyses, but very useful as an initial screen. • 2. Patch clamp is used to record movement of very few ions through very few channels. […]
smiles,measurement,setting,value
CC(C)CCC(=O)NCCO [N-(2-hydroxyethyl)-4-methylpentanamide],enhancement of saltiness of 50 mM NaCl,"[1]; 50 mM NaCl plus 20 ppm compound, geometric mean saltiness intensity ratings",more than 100%
same,enhancement of saltiness of 75 mM NaCl,"[1]; 75 mM NaCl plus 20 ppm compound, geometric mean saltiness intensity ratings",approximately 35%
same,saltiness of its own (saltiness intensity rating),"[1]; compound alone at 20 ppm, 121 subjects",almost no saltiness of its own
same,average bitterness intensity,"[1]; compound alone at 20 ppm, data not shown",3
same,reversibility of inward current,[2],completely reversible
same,effect on sodium currents (inward current) in oocytes,"[2]; successive addition of increasing (nanomolar) concentrations, from baseline state",enhancement of sodium currents
